As usually defined, the IC50 is the midpoint of a concentration-inhibition curve.

Where only a bound is given, the exact number is not on record here.

The record followed here is patent US7563774B2, “Combination of FBPase inhibitors and antidiabetic agents useful for the treatment of diabetes” (Metabasis Therapeutics, Inc., priority 2000, dated 2009).

One data set relates to rat hepatocytes. The data set is described as follows: Glucose production and fructose-1,6-bisphosphate levels in rat hepatocytes (Example D). The format is cell-based. How it is done: Hepatocytes were prepared from fed Sprague-Dawley rats (250-300 g) according to the procedure of Berry and Friend (Berry, M. N., Friend, D. S., 1969, J. Cell. Biol. 43, 506-520) as modified by Groen (Groen, A. K., Sips, H. J., Vervoom, R. C., Tager, J. M., 1982, Eur. J. Biochem. 122, 87-93). Hepatocytes (75 mg wet weight/mL) were incubated in 1 mL Krebs-bicarbonate buffer containing 10 mM Lactate, 1 mM pyruvate, 1 mg/mL BSA, and test compound concentrations from 0 to 500 μM. Incubations were carried out in a 95% oxygen, 5% carbon dioxide atmosphere in closed, 50-mL Falcon tubes submerged in a rapidly shaking water bath (37° C.). After 1 hour, an aliquot (0.25 mL) was removed, transferred to an Eppendorf tube and centrifuged. 50 μL of supernatant was then assayed for glucose content using a Sigma Glucose Oxidase kit as per the manufacturer's instructions.
Rat hepatocytes were isolated and incubated as described in Example C. Cell extracts, were analyzed for glucose content as described in Example C, and also for fructose 1,6-bisphosphate. Fructose 1,6-bisphosphate was assayed spectrophotometrically by coupling its enzymatic conversion to glycerol 3-phosphate to the oxidation of NADH, which was monitored at 340 nm. Reaction mixtures (1 mL) consisted of 200 mM Tris-HCl, pH 7.4, 0.3 mM NADH, 2 units/mL glycerol 3-phosphate dehydrogenase, 2 units/ml triosephosphate isomerase, and 50-100 μL cell extract. After a 30 minute preincubation at 37° C., 1 unit/ml of aldolase was added and the change in absorbance measured until a stable value was obtained. 2 moles of NADH are oxidized in this reaction per mole of fructose 1,6-bisphosphate present in the cell extract.

The test system of data set [1] is gluconeogenesis in rat hepatocytes. Nature of the data set: Inhibition of gluconeogenesis in rat hepatocytes (Example C). The format is cell-based. To be noted: Hepatocyte, glucose production from lactate/pyruvate, 1 hour.
Experimental: Hepatocytes (75 mg wet weight/mL) were incubated in 1 mL Krebs-bicarbonate buffer containing 10 mM Lactate, 1 mM pyruvate, 1 mg/mL BSA, and test compound concentrations from 0 to 500 μM. […] After 1 hour, an aliquot (0.25 mL) was removed, transferred to an Eppendorf tube and centrifuged. 50 μL of supernatant was then assayed for glucose content using a Sigma Glucose Oxidase kit as per the manufacturer's instructions.
Data set [2] has as its system Sprague-Dawley rats. The data set is described as follows: Drug metabolite levels, blood glucose and hepatic fructose 1,6-bisphosphate after Compound A p.o. in rats (Example E). Format: in vivo, rat. How it is done: Compound A was administered by oral gavage to freely-feeding Sprague Dawley rats (250-300 g). The compound was prepared as a suspension in carboxymethylcellulose, and administered at a dose of 250 mg/kg. For the determination of liver metabolites, rats were serially sacrificed over the course of 24 hours after drug administration. Livers were freeze-clamped, homogenized in perchloric acid, neutralized, and then analyzed for Compound B by anion exchange HPLC.
For the determination of plasma metabolites, rats were instrumented with carotid catheters prior to oral dosing. Blood samples were withdrawn via the catheters at appropriate time points over the course of 8 hours post drug administration. Plasma was prepared from the blood samples by centrifugation, and plasma protein precipitated by the addition of methanol to 60%. Compound A metabolites were quantitated by reverse phase HPLC in the deproteinated plasma samples. A C18 column (1.4 cm×250 mm) was equilibrated with 10 mM sodium phosphate, pH 5.5 and eluted with a gradient from this buffer to acetonitrile. Detection was at 254 nm.
The effect of Compound A on blood glucose and hepatic fructose 1,6-bisphosphate levels was determined in 18-hour fasted Sprague-Dawley rats (250-300 g). Animals were dosed as described above. At appropriate time points post drug administration, rats were anesthetized with halothane and a liver biopsy (approx. 1 g) was taken, as well as a blood sample (2 mL) from the posterior vena cava. A heparin flushed syringe and needle was used for blood collection. The liver sample was immediately homogenized in ice-cold 10% perchloric acid (3 mL), centrifuged, and the supernatant neutralized with ⅓ rd volume of 3 M KOH/[…]. Following centrifugation and filtration, the neutralized extract was analyzed for fructose 1,6-bisphosphate content as described for isolated hepatocytes in Example C. Blood glucose was measured by means of a Hemocue analyzer (Hemocue Inc, Mission Viejo, Calif.).

A further data set addresses T1, mouse liver FBPase (Mus musculus, UniProt Q9QXD6).
T1 construct: This partially purified fraction was used for enzyme assays; from tissue; host or cells: mouse liver (45-75% ammonium sulfate fraction of homogenate)
T1 sequence (Q9QXD6 2-338 limits assumed): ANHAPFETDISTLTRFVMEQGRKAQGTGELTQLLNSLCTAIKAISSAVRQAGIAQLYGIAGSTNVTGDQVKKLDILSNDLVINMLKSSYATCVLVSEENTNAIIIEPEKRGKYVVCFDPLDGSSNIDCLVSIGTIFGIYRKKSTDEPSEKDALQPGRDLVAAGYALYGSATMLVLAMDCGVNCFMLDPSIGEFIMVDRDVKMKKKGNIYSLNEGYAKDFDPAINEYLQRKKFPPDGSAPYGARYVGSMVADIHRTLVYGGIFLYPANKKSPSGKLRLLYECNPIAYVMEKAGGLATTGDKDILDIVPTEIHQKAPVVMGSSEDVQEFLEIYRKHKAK
The data set is described as follows: Inhibition of mouse liver FBPase (Example B). The format is biochemical.

The next data set has as its target T2, rat liver FBPase (Rattus norvegicus, UniProt P19112).
T2 construct: made in house; host or cells: E. coli BL21
T2 sequence (P19112 2-363 limits assumed): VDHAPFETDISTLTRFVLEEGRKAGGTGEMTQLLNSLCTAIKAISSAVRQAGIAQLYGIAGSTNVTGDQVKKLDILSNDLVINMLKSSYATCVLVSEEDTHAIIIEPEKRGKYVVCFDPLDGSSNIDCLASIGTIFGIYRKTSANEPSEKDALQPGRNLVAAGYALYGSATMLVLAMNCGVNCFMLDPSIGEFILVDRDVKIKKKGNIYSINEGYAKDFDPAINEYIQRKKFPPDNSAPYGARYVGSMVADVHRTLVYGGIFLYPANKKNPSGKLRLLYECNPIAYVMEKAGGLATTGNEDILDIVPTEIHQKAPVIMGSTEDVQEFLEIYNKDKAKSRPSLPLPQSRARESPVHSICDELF
Nature of the data set: Inhibition of rat liver FBPase (Example B). The format is biochemical.

The target of another data set is T3, human liver FBPase (Homo sapiens, UniProt P09467).
T3 construct: made in house; host or cells: E. coli BL21
T3 sequence (P09467 2-338 limits assumed): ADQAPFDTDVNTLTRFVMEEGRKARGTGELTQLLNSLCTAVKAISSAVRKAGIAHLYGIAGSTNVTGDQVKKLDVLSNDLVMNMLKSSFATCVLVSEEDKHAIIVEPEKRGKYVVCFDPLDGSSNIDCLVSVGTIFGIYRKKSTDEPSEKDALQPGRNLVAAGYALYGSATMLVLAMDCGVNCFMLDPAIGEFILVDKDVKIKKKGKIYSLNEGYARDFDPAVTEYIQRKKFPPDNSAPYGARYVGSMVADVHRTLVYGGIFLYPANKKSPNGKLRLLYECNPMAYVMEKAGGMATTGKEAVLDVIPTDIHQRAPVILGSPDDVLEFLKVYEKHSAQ
Nature of the data set: Inhibition of human liver FBPase (Example A). The format is biochemical.

Data set [3] deals with Sprague-Dawley rats. Nature of the data set: Glucose lowering, hepatic and plasma drug levels after intraperitoneal dosing of normal fasted rats (Example F). Particulars: 1 hour post injection. Format: in vivo, rat. The protocol: Sprague-Dawley rats (250-300 g) were fasted for 18 hours and then dosed intraperitoneally either with saline or FBPase inhibitor. The vehicle used for drug administration was 10 mM bicarbonate. One hour post injection, rats were anesthetized with halothane, and liver and blood samples were taken and processed as described in Example E. The neutralized liver extracts were analyzed for FBPase inhibitor content by HPLC. A reverse phase YMC ODS AQ column (250×4.6 […]) was used and eluted with a gradient from 10 mM sodium phosphate pH 5.5 to 75% acetonitrile. Absorbance was monitored at 310 nm. Glucose was measured in the blood sample as described in Example C. Plasma was prepared by centrifugation and extracted by addition of methanol to 60% (v/v). The methanolic extract was clarified by centrifugation and filtration and then analyzed by HPLC as described above.

Data set [4] deals with C57BL/KsJ db/db mice. The data set is described as follows: Acute combination treatment of insulin and Compound G in db/db mice (Example Z). The format is in vivo, mouse. How it is done:
Male C57BL/KsJ db/db mice were purchased at 5 weeks of age from Clea Japan, Inc. (Tokyo, Japan). The mice were maintained under standard vivarium conditions (24-26° C., 12-hour light cycle, 12-hour dark cycle) and received standard chow and water ad libitum. At 20 weeks of age, animals were divided into 4 groups (n=6/group). The treatment groups were control, compound G, insulin, and the combination of compound G and insulin. […] Insulin (human recombinant insulin, Penfill R300, Novo Nordisk, Denmark) was injected subcutaneously at a dose of 1.5 U/kg. Food was removed after treatment. Blood glucose levels in tail vein samples were measured by means of a Glucoloader-F, an automatic glucose analyzer, (A&T Co., Ltd., Tokyo, Japan).

Data set [5] has as its system C57BL/KsJ db/db mice. Nature of the data set: Chronic combination treatment of insulin and Compound G in db/db mice (Example AA). The format is in vivo, mouse. To be noted: db/db mice, 3 weeks. The protocol:
Male C57BL/KsJ db/db mice were purchased at 5 weeks of age from Clea Japan, Inc. (Tokyo, Japan). The mice were maintained under standard vivarium conditions (24-26° C., 12-hour light cycle, 12-hour dark cycle) and received standard chow and water ad libitum. At 16 weeks of age, animals were divided into 2 groups (n=5 or 9-10/group). Both groups were subcutaneously injected with human recombinant insulin (Penfill N300, Novo Nordisk, Denmark) on a daily basis to adjust plasma glucose levels to the target range of 250 to 300 mg/dL.

The next data set concerns db/db mice. The data set is described as follows: Glucose lowering in the db/db mouse (Example V). Format: in vivo. To be noted: last treatment day (day 18). The protocol: Treatment was for 18 days. […] Differences between groups were evaluated by the Student's t-test. Results are considered significant with p<0.05.
Data set [6] has as its system Zucker Diabetic Fatty (ZDF) rat. The data set is described as follows: Glucose lowering in the ZDF rat (Example W). The format is in vivo. From the text: The Zucker Diabetic Fatty (ZDF) rat is widely used as a model for human NIDDM as the progression of the disease in these rodents is similar to that described for human […] patients. […] Clark J B, Palmer C J (1982) Diabetes 30: 126A Terrettaz J, Jeanrenaud B (1983) Endocrinology 112: 1346-1351.

The next data set has as its system Sprague Dawley rats. Nature of the data set: Oral glucose lowering in overnight fasted Sprague Dawley rats (Example G). The format is in vivo, rat. To be noted: 4 h. The protocol: Oral efficacy of Compound J was assessed in overnight fasted Sprague Dawley rats. […] At 1.5 h or 4 h post drug administration, a blood sample was taken from the tail vein and analyzed for blood glucose by means of an automated glucose analyzer (HemoCue, HemoCue Inc, Mission Viejo, Calif.).

Setting [7] is: single 250 mg/kg dose p.o., 18-hour fasted rats.

Experimental for human liver FBPase: (§1) Enzymatic activity was measured spectrophotometrically in reactions that coupled the formation of product (fructose 6- phosphate) to the reduction of dimethylthiazoldiphenyltetrazolium bromide (MTT) via NADP and phenazine methosulfate (PMS), using phosphoglucose isomerase and glucose 6-phosphate dehydrogenase as the coupling enzymes. […] Inhibitor concentrations were varied from 0.01 μM to 10 μM. Reactions were started by the addition of 0.002 units of pure hlFBPase and were monitored for 7 minutes at 590 nm in a Molecular Devices Plate Reader (37° C.).
Experimental for mouse liver FBPase: as §1
Mouse liver FBPase was obtained by homogenizing freshly isolated mouse liver in 100 mM Tris-HCl buffer, pH 7.4, containing 1 mM EGTA, and 10% glycerol. […] This fraction was redissolved in the homogenization buffer and desalted on a PD-10 gel filtration column (Biorad) eluted with same. This partially purified fraction was used for enzyme assays.

In the case of `CC(=O)OC[C@H]1O[C@@H](n2cnc(C(N)=O)c2Br)[C@H](OC(C)=O)[C@@H]1OC(C)=O` [Compound A], the “intracellular fructose 1,6-bisphosphate” value in the data set with rat hepatocytes was “dose-dependent elevation”. For the same compound, the half-maximal inhibitory concentration (IC50) in the data set with rat hepatocytes (Hepatocyte, read-out: IC50, inhibition of glucose production) stood at 50 µM. In [1], this compound gave a half-inhibitory concentration (IC50) of 50 µM. Besides, in the data set with Sprague-Dawley rats [2] (Compound A 250 mg/kg p.o., over 8 hours), the plasma metabolites result is recorded as “rapidly deacetylated at all three positions”. Moreover, in the data set with Sprague-Dawley rats [2] (Compound A 250 mg/kg p.o., over 24 hours), the liver metabolites entry is “efficiently converted to Compound B”. In the data set on Sprague-Dawley rats [2] (setting [7]), the “duration of blood glucose lowering” value is “approximately 8 hours” and the “hepatic fructose-1,6-bisphosphate levels” value is recorded as “elevation of hepatic fructose-1,6-bisphosphate levels”.
As to `Nc1ncnc2c1ncn2[C@@H]1O[C@H](COP(=O)(O)O)[C@@H](O)[C@H]1O` [AMP], the concentration for half-maximal inhibition (IC50) at mouse liver FBPase came out at 15 µM; at rat liver FBPase it was 25 µM; at human liver FBPase, 1.3 µM.
For `CCc1cc(F)c(N)c2nc(-c3ccc(P(=O)(O)O)o3)n(CC(C)C)c12` [Compound E], in the data set with rat hepatocytes, the “intracellular fructose 1,6-bisphosphate” value is reported as “dose-dependent elevation”. The compound further registered a Liver conc. in the data set on Sprague-Dawley rats [3] of 38.4 nmol/g.
As for `CSc1sc(N)nc1-c1ccc(P(=O)(O)O)o1` [Compound G, 2-Amino-5-methylthio-4-[2-(5-phosphono)furanyl]thiazole], the “Plasma Glucose, % of pretreatment values” in the data set with C57BL/KsJ db/db mice [4] (after 1 hour) is on record as “(84.2 +/− 1.9) %”; in the data set on C57BL/KsJ db/db mice [4] (after 4 hours), “(48.6 +/− 4.0) %”; in the data set with C57BL/KsJ db/db mice [4] (after […]), “(59.6 +/− 2.3) %”; with C57BL/KsJ db/db mice [4] (before (0 hour)), “(100.0 +/− 0.0) %”. Further, the “Plasma Glucose” value in the data set with C57BL/KsJ db/db mice [4] (after 1 hour, Compound G 200 mg/kg p.o., insulin 1.5 U/kg s.c.) stood at 650.8 ± 14.8 mg/dL; with C57BL/KsJ db/db mice [4] (after 4 hours), 373.7 ± 24.7 mg/dL; in the data set on C57BL/KsJ db/db mice [4] (after […]) it was 459.7 ± 11.5 mg/dL; in the data set with C57BL/KsJ db/db mice [4] (before (0 hour)), 774.0 ± 18.3 mg/dL. In addition, the plasma glucose lowering entry with C57BL/KsJ db/db mice [4] (db/db mice, acute) is reported as “progressively decreased plasma glucose levels”. Besides, in the data set on C57BL/KsJ db/db mice [5], the “insulin dose required to lower plasma glucose to the target range” value is given as “remarkably decreased the insulin dose required”. In the data set with db/db mice, the “blood glucose levels versus control group” value is “significantly lower than those in the control group”. In addition, in [6], the glycemic control entry is given as “significantly improved glycemic control”. Further, the “Blood Glucose” value in [6] (0.2% food admixture, Day 14) stood at 530 ± 48 mg/dL. For the same compound, the “Glucose Lowering, %” value is 48% in the data set on Sprague Dawley rats (Compound G 10 mg/kg p.o.) and >70% with Sprague Dawley rats (Compound G 30 mg/kg p.o.).
